Laboratory results reported in ChEMBL document CHEMBL2331144, “Synthesis and anticancer activity of analogues of phenstatin, with a phenothiazine A-ring, as a new class of microtubule-targeting agents” (Bioorg Med Chem Lett, 2013).

Experiments:
786-0 = assay: Growth inhibition of human 786-0 cells at 10 uM after 48 hrs by sulforhodamine B assay; type: functional; details: 786-0, 48 h, read-out: GI
OVCAR-4 = assay: Growth inhibition of human OVCAR4 cells at 10 uM after 48 hrs by sulforhodamine B assay; type: functional; details: OVCAR-4, 48 h, read-out: GI
COLO 205 = assay: Growth inhibition of human COLO205 cells at 10 uM after 48 hrs by sulforhodamine B assay; type: functional; details: COLO 205, 48 h, read-out: GI
RXF 393 = assay: Growth inhibition of human RXF393 cells at 10 uM after 48 hrs by sulforhodamine B assay; type: functional; details: RXF 393, 48 h, read-out: GI
Ovis aries = organism: Ovis aries; assay: Inhibition of sheep brain tubulin polymerization at 100 uM using DAPI by fluorimetry
HCT-15 = assay: Growth inhibition of human HCT15 cells at 10 uM after 48 hrs by sulforhodamine B assay; type: functional; details: HCT-15, 48 h, read-out: GI
NCI-H522 = assay: Growth inhibition of human NCI-H522 cells at 10 uM after 48 hrs by sulforhodamine B assay; type: functional; details: NCI-H522, 48 h, read-out: GI
PC-3 = assay: Growth inhibition of human PC3 cells at 10 uM after 48 hrs by sulforhodamine B assay; type: functional; details: PC-3, 48 h, read-out: GI
MDA-MB-468 = assay: Growth inhibition of human MDA-MB-468 cells at 10 uM after 48 hrs by sulforhodamine B assay; type: functional; details: MDA-MB-468, 48 h, read-out: GI
HCT-116 = assay: Growth inhibition of human HCT116 cells at 10 uM after 48 hrs by sulforhodamine B assay; type: functional; details: HCT-116, 48 h, read-out: GI
SK-MEL-5 = assay: Growth inhibition of human SK-MEL-5 cells at 10 uM after 48 hrs by sulforhodamine B assay; type: functional; details: SK-MEL-5, 48 h, read-out: GI
KM12 = assay: Growth inhibition of human KM12 cells at 10 uM after 48 hrs by sulforhodamine B assay; type: functional; details: KM12, 48 h, read-out: GI
[1] = Growth inhibition of human NCI-ADR-RES cells at 10 uM after 48 hrs by sulforhodamine B assay; type: functional; details: read-out: GI
MDA-MB-231 = assay: Growth inhibition of human MDA-MB-231 cells at 10 uM after 48 hrs by sulforhodamine B assay; type: functional; details: MDA-MB-231, 48 h, read-out: GI
MDA-MB-435 = assay: Growth inhibition of human MDA-MB-435 cells at 10 uM after 48 hrs by sulforhodamine B assay; type: functional; details: MDA-MB-435, 48 h, read-out: GI
MCF7 = assay: Growth inhibition of human MCF7 cells at 10 uM after 48 hrs by sulforhodamine B assay; type: functional; details: MCF7, 48 h, read-out: GI
CAKI-1 = assay: Growth inhibition of human CAKI-1 cells at 10 uM after 48 hrs by sulforhodamine B assay; type: functional; details: CAKI-1, 48 h, read-out: GI
HOP-62 = assay: Growth inhibition of human HOP62 cells at 10 uM after 48 hrs by sulforhodamine B assay; type: functional; details: HOP-62, 48 h, read-out: GI
LOX IMVI = assay: Growth inhibition of human LOXIMVI cells at 10 uM after 48 hrs by sulforhodamine B assay; type: functional; details: read-out: GI
HL-60(TB) = assay: Growth inhibition of human HL-60(TB) cells at 10 uM after 48 hrs by sulforhodamine B assay; type: functional; details: HL-60, 48 h, read-out: GI
UACC-62 = assay: Growth inhibition of human UACC62 cells at 10 uM after 48 hrs by sulforhodamine B assay; type: functional; details: UACC-62, 48 h, read-out: GI
Malme-3M = assay: Growth inhibition of human MALME-3M cells at 10 uM after 48 hrs by sulforhodamine B assay; type: functional; details: read-out: GI
CCRF-CEM = assay: Growth inhibition of human CCRF-CEM cells at 10 uM after 48 hrs by sulforhodamine B assay; type: functional; details: read-out: GI
T47D = assay: Growth inhibition of human T47D cells at 10 uM after 48 hrs by sulforhodamine B assay; type: functional; details: read-out: GI
MOLT-4 = assay: Growth inhibition of human MOLT4 cells at 10 uM after 48 hrs by sulforhodamine B assay; type: functional; details: MOLT-4, 48 h, read-out: GI
RPMI-8226 = assay: Growth inhibition of human RPMI8226 cells at 10 uM after 48 hrs by sulforhodamine B assay; type: functional; details: RPMI-8226, 48 h, read-out: GI
HOP-92 = assay: Growth inhibition of human HOP92 cells at 10 uM after 48 hrs by sulforhodamine B assay; type: functional; details: HOP-92, 48 h, read-out: GI
SNB-75 = assay: Growth inhibition of human SNB75 cells at 10 uM after 48 hrs by sulforhodamine B assay; type: functional; details: SNB-75, 48 h, read-out: GI
UO-31 = assay: Growth inhibition of human UO31 cells at 10 uM after 48 hrs by sulforhodamine B assay; type: functional; details: UO-31, 48 h, read-out: GI
K562 = assay: Growth inhibition of human K562 cells at 10 uM after 48 hrs by sulforhodamine B assay; type: functional; details: K562, 48 h, read-out: GI
SF-295 = assay: Growth inhibition of human SF295 cells at 10 uM after 48 hrs by sulforhodamine B assay; type: functional; details: SF-295, 48 h, read-out: GI
A498 = assay: Growth inhibition of human A498 cells at 10 uM after 48 hrs by sulforhodamine B assay; type: functional; details: A498, 48 h, read-out: GI

| Compound | inhibition of growth at 10 µM (786-0) [%] | inhibition of growth at 10 µM (OVCAR-4) [%] | inhibition of growth at 10 µM (COLO 205) [%] | inhibition of growth at 10 µM (RXF 393) [%] | inhibition (Ovis aries) [%] | inhibition of growth at 10 µM (HCT-15) [%] | inhibition of growth at 10 µM (NCI-H522) [%] | inhibition of growth at 10 µM (PC-3) [%] | inhibition of growth at 10 µM (MDA-MB-468) [%] | inhibition of growth at 10 µM (HCT-116) [%] | inhibition of growth at 10 µM (SK-MEL-5) [%] | inhibition of growth at 10 µM (KM12) [%] | inhibition of growth at 10 µM [1] [%] | inhibition of growth at 10 µM (MDA-MB-231) [%] | inhibition of growth at 10 µM (MDA-MB-435) [%] | inhibition of growth at 10 µM (MCF7) [%] | inhibition of growth at 10 µM (CAKI-1) [%] | inhibition of growth at 10 µM (HOP-62) [%] | inhibition of growth at 10 µM (LOX IMVI) [%] | inhibition of growth at 10 µM (HL-60(TB)) [%] | also measured |
| --- | --- | --- | --- | --- | --- | --- | --- | --- | --- | --- | --- | --- | --- | --- | --- | --- | --- | --- | --- | --- | --- |
| O=C(c1cnc2ccccn12)N1c2ccccc2Sc2ccccc21 | 5.3 | 0 | 19.1 | 0 | 38 | 17.3 | 6.6 | 45.1 | 7.3 | 17.8 | 14.6 | 14 | 12.8 | 7.4 | 6.7 | 4.6 | 5.9 | 3.4 | 12 | 38.1 | inhibition of growth at 10 µM (UACC-62): 39.3%; inhibition of growth at 10 µM (Malme-3M): 2%; inhibition of growth at 10 µM (CCRF-CEM): 3.1%; inhibition of growth at 10 µM (T47D): 19.2%; inhibition of growth at 10 µM (MOLT-4): 0%; inhibition of growth at 10 µM (RPMI-8226): 36%; inhibition of growth at 10 µM (HOP-92): 33.8%; inhibition of growth at 10 µM (SNB-75): 0%; inhibition of growth at 10 µM (UO-31): 0%; inhibition of growth at 10 µM (K562): 2.3%; inhibition of growth at 10 µM (SF-295): 16% |
| CCOC(=O)c1cc(C(=O)N2c3ccccc3Sc3ccccc32)n2ccc(N(C)C)cc12 | 0 | 9.5 | 0 | 33.3 | 42 | 18.3 | 26.2 | 50.7 | 19.7 | 12.1 | 23.2 | 26.4 | 29.4 | 7.2 | 74.5 | 18.5 | 23.2 | 29.5 | 20.2 | 6.7 | inhibition of growth at 10 µM (UACC-62): 27.7%; inhibition of growth at 10 µM (Malme-3M): 22.7%; inhibition of growth at 10 µM (CCRF-CEM): 27.1%; inhibition of growth at 10 µM (T47D): 14.7%; inhibition of growth at 10 µM (MOLT-4): 15.3%; inhibition of growth at 10 µM (RPMI-8226): 0%; inhibition of growth at 10 µM (HOP-92): 18.4%; inhibition of growth at 10 µM (SNB-75): 30.1%; inhibition of growth at 10 µM (UO-31): 0%; inhibition of growth at 10 µM (A498): 4.4%; inhibition of growth at 10 µM (SF-295): 22.8% |
